Calls of active or inactive are those of the source. The calls are words filed in the database; no cut-off is given here.
What was measured:
[1] = Solubility in water.; format: physicochemical; settings: read-out: S
[2] = target: GABA-A receptor; anion channel; test: In vitro affinity at the Benzodiazepine receptor (BzR) is its ability to displace [3H]diazepam from BzR.; format: protein-complex assay, Rattus norvegicus
Mus musculus [3] = test: In vivo dose required to induce convulsions in 50% of the mice previously treated by a subconvulsant dose of pentylenetetrazole (40 mg/kg)
Mus musculus [4] = test: Dose required to induce convulsions in 50% of the mice.(In vivo convulsant activity.)
Monkey [5] = test: Anxiogenic activity in vivo in Rhesus monkeys; Potent activity; format: functional, organism-based; settings: Cercopithecidae
Rattus norvegicus [6] = test: In vivo proconvulsant activity in rats; format: functional
Mus musculus [7] = test: Dose required to induce convulsions in 50% of the mice that had been previously treated by a subconvulsant dose of pentylenetetrazole (40 mg/kg)
Rattus norvegicus [8] = species: Rattus norvegicus; test: Dose required to induce convulsions in 50% of the rats; format: functional
Monkey [9] = test: Anxiogenic activity in vivo in Rhesus monkeys; format: functional; settings: Cercopithecidae, in Macaca mulatta
Mus musculus [10] = test: Dose required to induce convulsions in 50% of the mice.(In vivo proconvulsant activity.)

Structure (SMILES) | solubility [1] [µg/mL] | IC50 [2] [nM] | other results
CCOC(=O)c1cc2c3ccccc3nc-2c[nH]1.Cl | 1000 | – | –
Cl.c1ccc2c(c1)[nH]c1c[nH]c3c4cccnc4nc-3c12 | 7600 | 10.6 | ED50 (Mus musculus [3]): 11 mg/kg
c1ccc2c(c1)[nH]c1cnc3c(nc4ccccn43)c12 | – | 39 | –
CCc1c(C(=O)OC)[nH]cc2nc3cc(OC)c(OC)cc3c1-2.Cl | < 200 | 1 | ED50 (Mus musculus [4]): 4 mg/kg
c1ccc2c(c1)ccn1c2nc2c3c4ccccc4nc-3c[nH]c21 | – | > 2000 | –
c1ccc2c(c1)ccc1nc3c4c5ccccc5nc-4c[nH]c3n12 | – | > 3000 | –
CCOc1cc2c3ccccc3nc-2c[nH]1.Cl | 12000 | 24 | ED50 (Monkey [5]): Active; ED50 (Rattus norvegicus [6]): 7 mg/kg; ED50 (Mus musculus [7]): 7 mg/kg
Cl.c1cnc2c3[nH]cc4[nH]c5ccccc5c4c-3nc2c1 | 11000 | 10.2 | –
c1ccc2c(c1)ccc1[nH]c3c4c5ccccc5nc-4c[nH]c3c12 | – | > 125 | –
c1ccc2c(c1)ccc1c3[nH]cc4nc5ccccc5c-4c3[nH]c21 | – | > 125 | –
c1ccc2c3c4ncc5[nH]c6ccccc6c5c4nc-3c[nH]c2c1 | – | > 1000 | –
Cl.c1ccc2c(c1)[nH]c1c[nH]c3c4ccncc4nc-3c12 | 13000 | 51.5 | ED50 (Mus musculus [3]): 25 mg/kg
c1ccc2c(c1)cnn1c2nc2c3c4ccccc4nc-3c[nH]c21 | – | 200 | –
CCOC(=O)c1cc2c(cn1)[nH]c1ccccc12 | < 200 | – | ED50 (Rattus norvegicus [8]): 3.2 mg/kg; ED50 (Monkey [9]): 2.5 mg/kg; ED50 (Rattus norvegicus [6]): 75 mg/kg
Cl.c1ccc2c(c1)[nH]c1c2ncc2[nH]c3ccccc3c21 | < 2000 | – | ED50 (Mus musculus [10]): 15.5 mg/kg
